Data taken from article PMC5839262, “Inhibitors of bacterial protease enzymes for periodontal therapy” (Clinical and Experimental Dental Research, 2015).
Read-outs that look alike come from different tables or passages of the source. Where a SMILES comes first, the peptide text is derived from it.

Legend:
[1] = molecular target: Kgp (Porphyromonas gingivalis, UniProt B2RLK2); experiment: Kgp gingipain activity, fluorescent assay with Boc‐VLK‐AMC in Pg cell suspensions; assay type: biochemical
Method: (§1) To obtain culture media for measuring secreted gingipain activity, we removed bacteria by centrifugation followed by filtration through 0.2‐µm filters, and we supplemented the medium with 0.2 mM PMSF to block any serine‐protease activity. To measure cell‐associated activity, we resuspended bacteria to an optical density of 4.0 at 600 nm (4 × 10^9 CFU/mL) in DPBS, and PMSF was added. Portions of the media and bacterial suspensions were frozen in liquid nitrogen and stored at −80°C.
(§2) The gingipain assay was adapted from procedures of Chen et al. (2001) and Suwannakul et al. (2010). To measure activity of Rgp or Kgp, respectively, we incubated various volumes of media or bacterial suspensions 10 min at 37°C in DPBS with 1 mM L‐cysteine to ensure that the gingipain active‐site cysteine was in the reduced, active form, and then we added the substrate benzoyl‐R‐AMC or Boc‐VLK‐AMC to give 0.2 mM substrate in a final volume of 0.1 mL. The incubation was continued 15 min at 37°C in black multiwell plates. Incubations were stopped by adding 50 μL of 1.5 mM TLCK, an irreversible inhibitor of serine and cysteine proteases. Fluorescence was measured with a fluorescence plate reader (SpectraMax Gemini EM, Molecular Devices, Sunnyvale, CA) with excitation at 365 nm and emission at 460 nm to measure hydrolysis of the substrate and release of the fluorescent product.
(§3) To measure effects of inhibitors on Rgp or Kgp activity, we diluted conditioned media fivefold or bacterial suspensions fiftyfold with DPBS, and we selected a diluted sample volume of 20 μL or less that gave a strong fluorescent signal, and we incubated the sample 15 min in DPBS with 0.2 mM substrate and various levels of protease inhibitors.

[2] = test system: Rgp; experiment: Rgp gingipain activity, fluorescent assay with benzoyl‐R‐AMC in Pg cell suspensions; assay type: biochemical, Porphyromonas gingivalis; conditions: for IC50: 0.2 mM benzoyl‐R‐AMC, 15 min, read-out: concentration causing 50% inhibition of Rgp activity; for effect on Rgp activity: concentrations up to 1 × 10^−4 M, results not shown
Method: as §1, §2, §3

[3] = test system: cultured human cells; set-up: method as in Kadowaki et al., 2004; Kataoka et al., 2014; conditions: ref Kadowaki et al., 2004; Kataoka et al., 2014; cited from earlier work
[4] = Water solubility; assay type: physicochemical; conditions: stated in discussion
[5] = test system: Pg; experiment: Bactericidal activity, LIVE/DEAD BacLight viability assay; assay type: cell-based, Porphyromonas gingivalis; conditions: 1 h; for bactericidal activity: both Pg strains, concentrations up to 1 × 10^−4 M
Method: Pg bacteria were collected by centrifugation and diluted to 2 × 10^8 CFU/mL in isotonic saline at 25°C. Pg (10^8 CFU/mL) were then incubated with various concentrations of protease inhibitors at 37°C with gentle mixing in 0.1 mL incubation mixtures in black multiwell plates inside AnaeroGen™ Compact pouches (Oxoid Corporation, Nepean, ON, Canada) to lower the oxygen (O2) concentration. After 1 h, the number of live bacteria per milliliter was measured with a LIVE/DEAD BacLight™ Bacterial Viability kit (Invitrogen, Inc., Carlsbad, CA). The assay determines the number of live bacteria based on entry of the fluorescent dyes SYTO 9 and propidium iodide into the bacteria. SYTO 9 enters both live and dead bacteria and binds to DNA, giving a green fluorescence. Propidium iodide enters only dead bacteria and binds to DNA, giving a red fluorescence. A 0.1 mL portion of 2× BacLight dye mixture was added to the bacteria in the wells, and the plate was incubated 15 min at 37°C in an AnaeroGen™ pouch in the dark. Immediately following removal of the plate from the pouch, fluorescence was measured in a fluorescence plate reader with excitation at 485 nm. Green fluorescence of SYTO 9 was measured at 538 nm, and red fluorescence of propidium iodide was measured at 612 nm. Standard curves were prepared with various ratios of live and dead bacteria, and the number of live bacteria was determined from the ratio of green to red fluorescence. Control experiments were performed in which Pg viability was measured by diluting, plating on blood agar plates, and counting colonies after 1 to 2 weeks at 37°C under anaerobic conditions to confirm that the plating and fluorescent assays provided similar results. Toxicity of the protease inhibitors to E. coli was also measured. Assay conditions were the same as for Pg except that incubations were in air.

[6] = test system: E. coli; experiment: as above; assay type: cell-based, Escherichia coli; conditions: 1 h
Method: Escherichia coli strain 43827 was purchased from the American Type Culture Collection and grown in TSB overnight with shaking in air at 37°C. Suspensions were serially diluted in saline and plated on TSB agar to determine CFU per milliliter.
Pg bacteria were collected by centrifugation and diluted to 2 × 10^8 CFU/mL in isotonic saline at 25°C. Pg (10^8 CFU/mL) were then incubated with various concentrations of protease inhibitors at 37°C with gentle mixing in 0.1 mL incubation mixtures in black multiwell plates inside AnaeroGen™ Compact pouches (Oxoid Corporation, Nepean, ON, Canada) to lower the oxygen (O2) concentration. After 1 h, the number of live bacteria per milliliter was measured with a LIVE/DEAD BacLight™ Bacterial Viability kit (Invitrogen, Inc., Carlsbad, CA). […] SYTO 9 enters both live and dead bacteria and binds to DNA, giving a green fluorescence. Propidium iodide enters only dead bacteria and binds to DNA, giving a red fluorescence. […] Immediately following removal of the plate from the pouch, fluorescence was measured in a fluorescence plate reader with excitation at 485 nm. Green fluorescence of SYTO 9 was measured at 538 nm, and red fluorescence of propidium iodide was measured at 612 nm. Standard curves were prepared with various ratios of live and dead bacteria, and the number of live bacteria was determined from the ratio of green to red fluorescence. […]

[7] = test system: cathepsin B; set-up: method as in McConnell et al., 1993; conditions: ref McConnell et al., 1993; cited from earlier work

## CC(C)C[C@H](NC(=O)[C@H]1O[C@@H]1C(=O)O)C(=O)NCCCCN=C(N)N (relative stereo) [E64, trans‐epoxysuccinyl‐L‐leucylamido‐(4‐guanidino)butane]
[1]; any concentration tested, Pg 33277 cell suspensions
  effect on Kgp activity: no effect
[2]; Pg 33277 cell suspensions
  concentration causing 90% inhibition of Rgp activity: 1 mM
  IC50: 50000 nM

## CN(C)C(=O)[C@H](CCCCN)NC(=O)C(=O)[C@H](CCCNC(=N)N)NC(=O)[C@H](CCCCN)NC(=O)OCc1ccccc1 [KYT‐1, carbobenzoxy‐Lys‐Arg‐CO‐Lys‐N(CH3)2]
[1]
  IC50: 20000 nM
[2]; Pg 33277 cell suspensions
  IC50: 2 nM
[2]; Rgp versus Kgp, cell suspensions
  difference in concentrations causing 50% inhibition of Rgp and Kgp: 10,000 fold
[3]
  toxicity to cultured human cells: non‐toxic
[4]
  water solubility: water soluble
[5]
  bactericidal activity: not bactericidal

## CN(NC(=O)CC[C@H](NC(=O)OCc1ccccc1)C(=O)N[C@@H](CCCCN)C(=O)C(=O)NCc1ccccc1)c1ccccc1 [KYT‐36, carbobenzoxy‐Glu(NHN(CH3)Ph)‐Lys‐CO‐NHCH2Ph]
[1]
  IC50: 1 nM
[2]
  effect on Rgp activity: did not inhibit Rgp
[3]
  toxicity to cultured human cells: non‐toxic
[4]
  water solubility: water soluble
[5]
  bactericidal activity: not bactericidal

## NC(N)=NCCC[C@H](NC(=O)[C@@H]1CCCN1C(=O)[C@H](N)Cc1ccccc1)C(=O)CCl [PPACK, D‐Phe‐Pro‐Arg‐chloromethylketone]
[1]; Pg 33277 cell suspensions, 0.2 mM Boc‐VLK‐AMC, 15 min, read-out: concentration causing 50% inhibition of Kgp activity
  IC50: 20 nM
[2]; Pg 33277 cell suspensions
  IC50: 2 nM

## Cc1cc(C)c(C(=O)OCC(=O)[C@H](CCCCN)NC(=O)[C@H](Cc2ccccc2)NC(=O)OCc2ccccc2)c(C)c1 [Z‐FK‐ck, Z‐Phe‐Lys‐2,4,6‐trimethylbenzoyloxy‐methylketone]
[1]
  IC50: 0.5 nM
[2]; Pg 33277 cell suspensions
  IC50: 2000 nM
[5]; Pg 10^8 CFU/mL, 37°C, low oxygen
  concentration causing 50% loss of viability: 30 µM
[5]
  bactericidal activity: significant bactericidal activity
[6]; 37°C, in air
  concentration causing 50% loss of viability: 30 µM
[6]; concentrations up to 1 × 10^−4 M
  bactericidal activity: significant bactericidal activity

## CC(=O)N[C@@H](CC(C)C)C(=O)N[C@H](C(=O)N[C@H](C=O)CCCCN)C(C)C [cathepsin B inhibitor II, Ac‐Leu‐Val‐Lys‐aldehyde] (Ac-Leu-Val-Lys-aldehyde)
[1]
  IC50: 50 nM
[7]
  effectiveness as inhibitor of cathepsin B relative to leupeptin: ~100 times
[2]
  effect on Rgp activity: no effect

## CC(=O)N[C@@H](CC(C)C)C(=O)N[C@@H](CC(C)C)C(=O)N[C@H](C=O)CCCNC(=N)N [leupeptin, Ac‐Leu‐Leu‐Arg‐aldehyde]
[1]; concentrations up to 1 × 10^−4 M, results not shown
  effect on Kgp activity: no effect
[2]; Pg 33277 cell suspensions
  IC50: 20 nM
